The record followed here is patent US20240352021A1 (DANA-FARBER CANCER INSTITUTE, INC., priority 2021, published 2024).

Where only a bound is given, the exact number is not on record here.

One assay addresses EGFR L858R (Homo sapiens, UniProt P00533, L858R). Description: EGFR biochemical assay (headed HTRF-based; method describes Z'-LYTE), L858R. Conditions: Table 4. The protocol: (§1) To measure the IC50 values of compounds herein against EGFR, a Z′-LYTE assay (ThermoFisher) was used. Briefly, 2.5 μL of different concentrations of the compounds in 4% DMSO were added to 5 μL kinase/peptide mixture in each well of a 384-well plate (Corning Cat. #3676). 2.5 μL of 4× ATP solution (4× ATP, 50 mM HEPES, pH 7.5, 0.01% BRIJ-35, 10 mM MgCl2, 1 mM EGTA) were added to each well. The plate was shaken for 30 seconds, and then incubated at room temperature for 60 minutes. 5 μL of a 1:100000 dilution of Development Reagent A was added to each well. The plate was then incubated for 60 mins at room temperature. 5 μL of the stop reagent was then added. The plate was subsequently read on a fluorescence plate reader, and the emissions ratio was calculated to determine the ratio of Ser/Thr 07 phosphorylated by the reaction. Emissions Ratio═Coumarin Emission (443 nm)/Flourescein Emission (520 nm).
(§2) HTRF-based EGFR assay data are provided below in Table 4.
(In general: In TR-FRET formats the signal depends on donor and acceptor labels being close together.)

The target in a further assay is EGFR L858R/T790M (Homo sapiens, UniProt P00533, L858R/T790M). Description: EGFR biochemical assay (headed HTRF-based; method describes Z'-LYTE), L858R/T790M. Conditions: Table 4. The protocol: as §1, §2
Chain of EGFR L858R/T790M (P00533 25-1210 T790M/L858R): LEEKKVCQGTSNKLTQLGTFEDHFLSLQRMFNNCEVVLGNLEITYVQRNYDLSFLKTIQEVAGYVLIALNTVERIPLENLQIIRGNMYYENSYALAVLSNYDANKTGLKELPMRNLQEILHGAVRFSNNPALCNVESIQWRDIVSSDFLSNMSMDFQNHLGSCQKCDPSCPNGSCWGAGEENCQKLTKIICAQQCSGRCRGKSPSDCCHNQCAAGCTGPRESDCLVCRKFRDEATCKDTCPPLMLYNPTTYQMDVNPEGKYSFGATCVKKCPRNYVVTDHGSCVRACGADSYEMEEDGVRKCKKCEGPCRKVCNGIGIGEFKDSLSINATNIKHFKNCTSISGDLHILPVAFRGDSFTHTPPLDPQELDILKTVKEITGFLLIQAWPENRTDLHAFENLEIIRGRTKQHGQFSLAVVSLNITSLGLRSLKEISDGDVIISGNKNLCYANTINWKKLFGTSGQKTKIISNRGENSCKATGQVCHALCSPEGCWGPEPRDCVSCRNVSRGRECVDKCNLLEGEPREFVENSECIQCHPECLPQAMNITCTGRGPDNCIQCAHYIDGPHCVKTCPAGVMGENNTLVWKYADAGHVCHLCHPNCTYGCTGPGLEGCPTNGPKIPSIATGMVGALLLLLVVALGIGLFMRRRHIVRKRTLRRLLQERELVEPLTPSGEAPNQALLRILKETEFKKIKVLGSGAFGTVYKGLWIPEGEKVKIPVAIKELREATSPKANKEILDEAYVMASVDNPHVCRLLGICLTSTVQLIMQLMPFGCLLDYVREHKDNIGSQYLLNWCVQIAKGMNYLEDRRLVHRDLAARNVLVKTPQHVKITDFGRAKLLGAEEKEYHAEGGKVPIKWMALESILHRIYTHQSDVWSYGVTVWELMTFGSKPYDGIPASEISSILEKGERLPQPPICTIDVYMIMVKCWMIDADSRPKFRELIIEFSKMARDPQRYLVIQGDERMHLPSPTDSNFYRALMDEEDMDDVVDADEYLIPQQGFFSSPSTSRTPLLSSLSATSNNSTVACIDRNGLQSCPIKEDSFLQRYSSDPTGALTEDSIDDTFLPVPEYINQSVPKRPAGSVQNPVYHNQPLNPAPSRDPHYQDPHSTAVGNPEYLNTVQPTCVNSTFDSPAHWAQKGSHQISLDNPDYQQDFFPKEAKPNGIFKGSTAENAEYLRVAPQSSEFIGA
Assay [1] addresses EGFR mutant L858R Ba/F3 cells (Homo sapiens, UniProt P00533, L858R, cells depend on it). Description: Ba/F3 cell proliferation (Cell Titer Glo), EGFR L858R. It counts as cell-based, murine. To be noted: 72 hours, Table 6, read-out: L858R BaF3. Put shortly:
(§3)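 Retrovirally transduced, puromycin-selected Ba/F3 cells expressing EGFR L858R or L858R/C797S, grown in RPMI + 10% FBS, exposed to compounds for 72 h in triplicate. Viability by Cell Titer Glo ATP luminescence; IC50 from sigmoidal dose-response fit, binned A <0.1, B 0.1–0.5, C 0.5–2.5, D ≥2.5 μM.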
(Cellular ATP, detected with luciferase, serves as a proxy for viable cell number.)

For assay [2], the target named is EGFR L858R/C797S Ba/F3 cells (Homo sapiens, UniProt P00533, C797S/L858R, cells depend on it). Description: Ba/F3 cell proliferation (Cell Titer Glo), EGFR L858R/C797S. It counts as cell-based, murine. Conditions: 72 hours, Table 6. Put shortly: as §3
Chain of EGFR L858R/C797S Ba/F3 cells (P00533 whole entry C797S/L858R): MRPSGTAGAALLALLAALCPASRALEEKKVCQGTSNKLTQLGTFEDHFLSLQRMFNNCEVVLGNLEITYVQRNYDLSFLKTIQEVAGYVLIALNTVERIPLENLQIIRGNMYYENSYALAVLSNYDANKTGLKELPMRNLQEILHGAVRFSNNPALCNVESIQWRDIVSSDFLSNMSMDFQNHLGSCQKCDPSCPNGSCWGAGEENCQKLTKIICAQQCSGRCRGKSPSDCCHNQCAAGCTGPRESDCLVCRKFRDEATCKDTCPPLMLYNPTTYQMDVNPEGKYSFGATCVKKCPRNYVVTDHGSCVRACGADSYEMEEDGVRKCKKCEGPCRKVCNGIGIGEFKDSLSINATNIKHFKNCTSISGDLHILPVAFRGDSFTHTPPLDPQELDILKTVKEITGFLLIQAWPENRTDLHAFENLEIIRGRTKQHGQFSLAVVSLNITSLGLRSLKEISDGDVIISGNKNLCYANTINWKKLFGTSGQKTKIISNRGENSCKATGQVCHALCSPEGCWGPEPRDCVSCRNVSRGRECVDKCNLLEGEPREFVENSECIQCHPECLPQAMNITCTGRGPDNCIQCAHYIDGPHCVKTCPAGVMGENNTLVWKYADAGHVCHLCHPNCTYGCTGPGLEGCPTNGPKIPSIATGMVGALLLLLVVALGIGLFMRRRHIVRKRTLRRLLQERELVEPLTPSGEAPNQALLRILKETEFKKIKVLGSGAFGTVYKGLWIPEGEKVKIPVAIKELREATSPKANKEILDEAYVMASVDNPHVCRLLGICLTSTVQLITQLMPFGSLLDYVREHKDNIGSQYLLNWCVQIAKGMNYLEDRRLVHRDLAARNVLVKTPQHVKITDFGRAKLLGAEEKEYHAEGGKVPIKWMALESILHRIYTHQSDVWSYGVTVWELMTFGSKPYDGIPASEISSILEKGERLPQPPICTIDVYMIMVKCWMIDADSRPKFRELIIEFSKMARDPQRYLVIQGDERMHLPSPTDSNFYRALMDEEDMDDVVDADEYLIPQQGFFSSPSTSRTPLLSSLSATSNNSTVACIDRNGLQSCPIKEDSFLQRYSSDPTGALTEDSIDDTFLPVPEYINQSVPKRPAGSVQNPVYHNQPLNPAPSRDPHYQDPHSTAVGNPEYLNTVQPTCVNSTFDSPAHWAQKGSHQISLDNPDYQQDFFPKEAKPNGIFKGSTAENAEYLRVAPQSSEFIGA

Chain of EGFR mutant L858R Ba/F3 cells (P00533 whole entry L858R): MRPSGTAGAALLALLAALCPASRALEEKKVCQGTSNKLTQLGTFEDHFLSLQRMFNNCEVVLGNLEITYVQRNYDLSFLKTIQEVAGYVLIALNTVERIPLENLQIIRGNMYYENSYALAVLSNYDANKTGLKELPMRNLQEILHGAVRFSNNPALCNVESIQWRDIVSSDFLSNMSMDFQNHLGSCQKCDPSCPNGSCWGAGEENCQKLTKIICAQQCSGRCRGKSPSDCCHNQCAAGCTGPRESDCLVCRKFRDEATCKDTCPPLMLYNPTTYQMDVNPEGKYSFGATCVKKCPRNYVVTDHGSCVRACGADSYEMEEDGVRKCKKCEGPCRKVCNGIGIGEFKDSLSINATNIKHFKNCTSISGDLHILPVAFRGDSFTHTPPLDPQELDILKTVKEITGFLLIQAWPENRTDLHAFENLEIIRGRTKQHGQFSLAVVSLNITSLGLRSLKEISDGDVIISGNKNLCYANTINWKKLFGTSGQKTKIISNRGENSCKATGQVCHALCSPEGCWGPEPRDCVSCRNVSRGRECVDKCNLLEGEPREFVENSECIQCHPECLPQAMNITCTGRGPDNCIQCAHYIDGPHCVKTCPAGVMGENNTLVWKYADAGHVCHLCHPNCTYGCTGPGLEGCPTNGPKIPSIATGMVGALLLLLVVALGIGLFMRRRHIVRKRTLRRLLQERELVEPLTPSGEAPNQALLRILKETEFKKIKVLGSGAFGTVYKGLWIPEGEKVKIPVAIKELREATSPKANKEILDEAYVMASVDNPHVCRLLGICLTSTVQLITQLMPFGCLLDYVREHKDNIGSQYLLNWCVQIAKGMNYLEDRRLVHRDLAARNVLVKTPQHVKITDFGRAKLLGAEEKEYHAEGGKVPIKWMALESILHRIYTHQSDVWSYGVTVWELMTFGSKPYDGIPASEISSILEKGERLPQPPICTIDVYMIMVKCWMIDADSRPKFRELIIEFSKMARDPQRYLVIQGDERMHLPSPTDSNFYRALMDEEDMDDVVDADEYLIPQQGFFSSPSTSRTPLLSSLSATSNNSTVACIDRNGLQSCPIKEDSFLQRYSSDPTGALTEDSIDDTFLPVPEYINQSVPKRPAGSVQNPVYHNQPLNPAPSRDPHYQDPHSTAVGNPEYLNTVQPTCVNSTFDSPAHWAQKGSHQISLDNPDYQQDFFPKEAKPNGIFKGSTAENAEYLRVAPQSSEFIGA
Chain of EGFR L858R (P00533 25-1210 L858R): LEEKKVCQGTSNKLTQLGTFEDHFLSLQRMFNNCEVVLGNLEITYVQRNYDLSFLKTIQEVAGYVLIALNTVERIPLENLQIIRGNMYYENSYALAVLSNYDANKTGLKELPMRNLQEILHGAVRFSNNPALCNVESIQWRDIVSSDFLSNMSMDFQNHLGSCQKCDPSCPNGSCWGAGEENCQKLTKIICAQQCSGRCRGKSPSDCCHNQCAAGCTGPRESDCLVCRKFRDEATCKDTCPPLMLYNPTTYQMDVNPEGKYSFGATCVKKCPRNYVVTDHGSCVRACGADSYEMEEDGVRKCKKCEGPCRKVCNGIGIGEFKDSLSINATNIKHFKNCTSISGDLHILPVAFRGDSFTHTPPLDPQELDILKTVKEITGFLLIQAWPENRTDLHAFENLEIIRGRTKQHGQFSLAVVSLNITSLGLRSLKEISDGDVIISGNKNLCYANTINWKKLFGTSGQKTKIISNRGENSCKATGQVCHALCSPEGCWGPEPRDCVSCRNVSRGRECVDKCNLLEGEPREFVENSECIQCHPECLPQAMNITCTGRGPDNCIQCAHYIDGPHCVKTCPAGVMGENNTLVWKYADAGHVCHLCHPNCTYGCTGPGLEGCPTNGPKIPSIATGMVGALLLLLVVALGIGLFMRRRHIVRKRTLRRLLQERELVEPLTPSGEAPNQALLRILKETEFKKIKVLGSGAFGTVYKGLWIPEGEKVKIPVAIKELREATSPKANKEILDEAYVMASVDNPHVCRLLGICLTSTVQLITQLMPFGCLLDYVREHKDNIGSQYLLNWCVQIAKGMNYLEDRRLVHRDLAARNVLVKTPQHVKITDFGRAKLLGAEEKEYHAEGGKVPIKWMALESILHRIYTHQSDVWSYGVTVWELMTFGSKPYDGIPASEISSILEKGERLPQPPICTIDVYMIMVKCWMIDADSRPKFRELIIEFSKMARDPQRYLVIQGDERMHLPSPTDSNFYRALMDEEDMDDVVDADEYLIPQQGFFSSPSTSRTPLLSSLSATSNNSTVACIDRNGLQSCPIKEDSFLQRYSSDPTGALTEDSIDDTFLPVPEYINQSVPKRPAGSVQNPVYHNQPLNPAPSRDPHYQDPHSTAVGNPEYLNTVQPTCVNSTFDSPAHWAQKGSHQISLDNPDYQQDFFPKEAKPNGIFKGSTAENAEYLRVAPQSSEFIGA

What is called IC50 is the point on the concentration scale where inhibition reaches its midpoint. Read a low IC50 as inhibition by little substance. On to `C=CC(=O)N1CC[C@H](N2Cc3cnc(Nc4cnn(CCO)c4)nc3N(C)C2=O)[C@@H]2CCC[C@@H]21` [Compound 126, 7-[[1-(2-hydroxyethyl)pyrazol-4-yl]amino]-1-methyl-S-(1-prop-2-enoyl-2,3,4,4a, 5,6,7,7a-octahydrocyclopenta[b]pyridin-4-yl)-4H-pyrimido[4,5-d]pyrimidin-2-one], for which the IC50 at EGFR L858R and against EGFR L858R/T790M was over 100 nM in each case. Moreover, the GI50 in assay [1] and in assay [2] was at least 2500 nM in each case.
In the case of `[2H]C1(N2Cc3cnc(Nc4cnn(CCO)c4)nc3N(C)C2=O)CCN(C(=O)C=C)c2ccccc21` (centres unmarked) [Compound 127], the IC50 is 1.2 nM against EGFR L858R and over 700 nM on EGFR L858R/T790M. The GI50 in assay [1] and in assay [2] was under 100 nM each time.
As to `[2H]C1(N2Cc3cnc(Nc4ccc(OCCN5CCCC5)cc4)nc3N(C)C2=O)CCN(C(=O)C=C)c2ccccc21` (centres unmarked) [Compound 128], the IC50 was 0.9 nM against EGFR L858R and over 700 nM at EGFR L858R/T790M. In addition, the GI50 in assay [1] and in assay [2] was under 100 nM throughout.
With `[2H]C1(N2Cc3cnc(Nc4ccc(N5CCN(C)CC5)cc4)nc3N(C)C2=O)CCN(C(=O)C=C)c2c(OC)cccc21` (centres unmarked) [Compound 130, 3-(4-deuterio-8-methoxy-1-prop-2-enoyl-2,3-dihydroquinolin-4-yl)-1-methyl-7-[4-(4-methylpiperazin-1-yl)anilino]-4H-pyrimido[4,5-d]pyrimidin-2-one], the 50% inhibitory concentration (IC50) against EGFR L858R is 43 nM; at EGFR L858R/T790M it was over 1000 nM. In addition, the GI50 is under 100 nM in assay [1] and 100 to 500 nM in assay [2].
Turning to `C=CC(=O)N1CCC(N2Cc3cnc(Nc4ccc(N5CCN(C)CC5)cc4)nc3N(C)C2=O)c2cnn(C)c21` (stereo not drawn) [Compound 132, 1-methyl-7-[4-(4-methylpiperazin-1-yl)anilino]-S-(1-methyl-7-prop-2-enoyl-5,6-dihydro-4H-pyrazolo[3,4-b]pyridin-4-yl)-4H-pyrimido[4,5-d]pyrimidin-2-one], the IC50 on EGFR L858R and against EGFR L858R/T790M was over 1000 nM in each case. In addition, the GI50 in assay [1] and in assay [2] was 100 to 500 nM throughout.
`C=CC(=O)N1CCC(N2Cc3cnc(Nc4ccc(N5CCN(C)CC5)cc4)nc3N(C)C2=O)c2cccc(O)c21` (centres unmarked) [Compound 133]: the figures for the IC50 against EGFR L858R and at EGFR L858R/T790M were 1.13 nM and 10 nM, respectively. The GI50 in assay [1] and in assay [2] was under 100 nM in each case.
Take `C=CC(=O)N1CCC(N2Cc3cnc(Nc4ccc(N5CCN(C)CC5)cc4)nc3N(CC(F)F)C2=O)c2cccc(OC)c21` (centres unmarked) [Compound 134, 3-(1-acryloyl-8-methoxy-1,2,3,4-tetrahydroquinolin-4-yl)-1-(2,2-difluoroethyl)-7-((4-(4-methylpiperazin-1-yl)phenyl)amino)-3,4-dihydropyrimido[4,5-d]pyrimidin-2(1H)-one]: the values for the IC50 against EGFR L858R and at EGFR L858R/T790M were 38.9 nM and over 1000 nM, respectively. Further, the GI50 is under 100 nM in assay [1] and 100 to 500 nM in assay [2].
On the same counts, the results for `C=CC(=O)N1c2ccccc2[C@@H](N2Cc3cnc(Nc4ccc(N5CCN(C)CC5)cc4)nc3N(C)C2=O)C[C@@H]1C` [Compound 135, 1-methyl-7-[4-(4-methylpiperazin-1-yl)anilino]-3-[(2S,4S)-2-methyl-1-prop-2-enoyl-3,4-dihydro-2H-quinolin-4-yl]-4H-pyrimido[4,5-d]pyrimidin-2-one] are 0.89 nM, over 1000 nM, under 100 nM and under 100 nM.
On the same counts, the results for `C=C(CN1CCC(N2Cc3cnc(Nc4ccc(N5CCN(C)CC5)cc4)nc3N(C)C2=O)C1)C(=O)O` (centres unmarked) [Compound 136, 2-[[3-[1-methyl-7-[4-(4-methylpiperazin-1-yl)anilino]-2-oxo-4H-pyrimido[4,5-d]pyrimidin-S-yl]pyrrolidin-1-yl]methyl]prop-2-enoic acid] are over 1000 nM, over 1000 nM, at least 2500 nM and at least 2500 nM.
The corresponding values for `C=C(CN1CC(N2Cc3cnc(Nc4ccc(N5CCN(C)CC5)cc4)nc3N(C)C2=O)C1)C(=O)O` [Compound 137, 2-[[3-[1-methyl-7-[4-(4-methylpiperazin-1-yl)anilino]-2-oxo-4H-pyrimido[4,5-d]pyrimidin-S-yl]azetidin-1-yl]methyl]prop-2-enoic acid] are over 1000 nM, over 1000 nM, at least 2500 nM and at least 2500 nM.
With `C=CC(=O)N1C[C@@H](N2Cc3cnc(Nc4ccc(N5CCN(C)CC5)cc4)nc3N(C)C2=O)C[C@@H]1C(=O)O` [Compound 138, (2R,4S)-4-[1-methyl-7-[4-(4-methylpiperazin-1-yl)anilino]-2-oxo-4H-pyrimido[4,5-d]pyrimidin-S-yl]-1-prop-2-enoyl-pyrrolidine-2-carboxylic acid], the IC50 against EGFR L858R and on EGFR L858R/T790M was over 1000 nM in each case. The GI50 in assay [1] and in assay [2] was at least 2500 nM throughout.
`C=CC(=O)N(C)c1ccccc1CN1Cc2cnc(Nc3ccc(N4CCN(C)CC4)cc3)nc2N(C)C1=O` [Compound 139, N-methyl-N-[2-[[1-methyl-7-[4-(4-methylpiperazin-1-yl)anilino]-2-oxo-4H-pyrimido[4,5-d]pyrimidin-S-yl]methyl]phenyl]prop-2-enamide]: the half-inhibitory concentration (IC50) against EGFR L858R and against EGFR L858R/T790M was over 1000 nM in each case. In addition, the GI50 in assay [1] was 100 to 500 nM; in assay [2], 500 to 2500 nM.
In the case of `C=CC(=O)N1CC[C@H](N2Cc3cnc(Nc4ccc(N5CCN(C)CC5)cc4)nc3N(C)C2=O)c2cccc(C)c21` [Compound 140, 1-methyl-7-[4-(4-methylpiperazin-1-yl)anilino]-S-[(4S)-8-methyl-1-prop-2-enoyl-3,4-dihydro-2H-quinolin-4-yl]-4H-pyrimido[4,5-d]pyrimidin-2-one], the results for the 50% inhibitory concentration (IC50) against EGFR L858R and at EGFR L858R/T790M were 0.97 nM and over 1000 nM, respectively. Also, the GI50 in assay [1] and in assay [2] was under 100 nM each time.
On to `C=CC(=O)N1CC[C@@H](N2Cc3cnc(Nc4ccc(N5CCN(C)CC5)cc4)nc3N(C)C2=O)c2cccc(C)c21` [Compound 141], for which the IC50 at EGFR L858R and against EGFR L858R/T790M was over 1000 nM throughout. For the same molecule, the GI50 in assay [1] and in assay [2] was 100 to 500 nM in each case.
As to `C=CC(=O)N1CCC12CC(N1Cc3cnc(Nc4ccc(N5CCN(C)CC5)cc4)nc3N(C)C1=O)C2` (stereo not drawn) [Compound 142, 1-methyl-7-[4-(4-methylpiperazin-1-yl)anilino]-S-(1-prop-2-enoyl-1-azaspiro[3.3]heptan-6-yl)-4H-pyrimido[4,5-d]pyrimidin-2-one], the IC50 against EGFR L858R and at EGFR L858R/T790M was over 1000 nM in each case. Also, the figures for the GI50 in assay [1] and in assay [2] were 500 to 2500 nM and at least 2500 nM, respectively.
For the molecule `C=CC(=O)N1CCC(N2Cc3cnc(Nc4ccc(N5CCN(C)CC5)cc4)nc3N(C)C2=O)c2cccc(C(F)(F)F)c21` (stereo not drawn) [Compound 143, 1-methyl-7-[4-(4-methylpiperazin-1-yl)anilino]-S-[1-prop-2-enoyl-8-(trifluoromethyl)-3,4-dihydro-2H-quinolin-4-yl]-4H-pyrimido[4,5-d]pyrimidin-2-one], the IC50 against EGFR L858R and against EGFR L858R/T790M was over 1000 nM in each case. The GI50 in assay [1] is 500 to 2500 nM; in assay [2], at least 2500 nM.
As for `C=CC(=O)N1CC[C@H](N2Cc3cnc(Nc4ccc(CS(C)(=O)=O)cc4)nc3N(C)C2=O)c2cccc(C)c21` [Compound 144], the IC50 on EGFR L858R was 1.57 nM; on EGFR L858R/T790M, over 1000 nM. Further, the GI50 in assay [1] and in assay [2] was under 100 nM throughout.
